We go through one compound from article PMC11879280, “Antimicrobial activity of peptoids against Metallo-β-lactamase-producing Klebsiella pneumoniae, Acinetobacter baumannii, Pseudomonas aeruginosa, and other WHO priority pathogens, including Candida auris” (Journal of Applied Microbiology, 2025).

The structures appear in SMILES notation. ≈ marks a conversion by molar mass, not a printed value.

Holding throughout (assay): MIC Test Strip MBL (imipenem, imipenem with EDTA)
What all share (type): cell-based

One assay has as its system A. baumannii 006. The note with it: Acinetobacter baumannii, Mueller–Hinton agar, 20 h, 37°C, read-out: Imipenem IMI (MIC, MBL strip). As to the method:
(§1) The test was performed as per the manufacturer’s instructions. Briefly, the strips were applied to a lawn culture of bacteria maintained at 1.5 × 10^8 CFU ml^−1 on Mueller–Hinton agar (Oxoid, UK) and incubated for 20 h at 37°C.

The next assay has as its system K. pneumoniae JIE2709. Conditions: Klebsiella pneumoniae, Mueller–Hinton agar, 20 h, 37°C, read-out: Imipenem IMI (MIC, MBL strip). As to the method: as §1
The test system of a further assay is K. pneumoniae JIE2713. Conditions: Klebsiella pneumoniae, Mueller–Hinton agar, 20 h, 37°C, read-out: Imipenem IMI (MIC, MBL strip). Here is the method:
as §1

Another assay deals with A. baumannii 005. Conditions: Acinetobacter baumannii, Mueller–Hinton agar, 20 h, 37°C, read-out: Imipenem IMI (MIC, MBL strip). As to the method:
as §1

Another assay relates to P. aeruginosa AR-1270. The note with it: Pseudomonas aeruginosa, AR1270, Mueller–Hinton agar, 20 h, 37°C, read-out: Imipenem IMI (MIC, MBL strip). As to the method: as §1
A further assay deals with A. baumannii 007. Conditions: Acinetobacter baumannii, Mueller–Hinton agar, 20 h, 37°C, read-out: Imipenem IMI (MIC, MBL strip). As to the method:
as §1

For the next assay, the system named is A. baumannii 008. Conditions: Acinetobacter baumannii, Mueller–Hinton agar, 20 h, 37°C, read-out: Imipenem IMI (MIC, MBL strip). As to the method: as §1
The next assay deals with P. aeruginosa 33. Conditions: Pseudomonas aeruginosa, Mueller–Hinton agar, 20 h, 37°C, read-out: Imipenem IMI (MIC, MBL strip). As to the method:
as §1

Regarding `C[C@@H](O)[C@H]1C(=O)N2C(C(=O)O)=C(SCCN=CN)C[C@H]12` [Imipenem, imipenem], the MIC turned out to be 64 µg/mL (≈ 214 µM) in the assay on A. baumannii 006; 16 µg/mL (≈ 53.4 µM) in the assay with K. pneumoniae JIE2709; 128 µg/mL (≈ 428 µM) in the assay with K. pneumoniae JIE2713; 64 µg/mL (≈ 214 µM) in the assay on A. baumannii 005; 16 µg/mL (≈ 53.4 µM) in the assay with P. aeruginosa AR-1270; 96 µg/mL (≈ 321 µM) with A. baumannii 007. The MIC in the assay on A. baumannii 008 turned out to be 48 µg/mL (≈ 160 µM); in the assay with P. aeruginosa 33 it was 8 µg/mL (≈ 26.7 µM).
